Test results published in the NIST ThermoML archive (doi:10.1021/je400512u).

Assay: xn = mol fraction of the nth substance listed
Details: 101 kPa, Liquid; for viscosity: Concentric cylinders viscometry; for speed of sound: Pulse-echo method; for mass density: Vibrating tube method

CCCCCCCO [heptan-1-ol] + C1COCCO1
Details	mass density, 298.15 K [kg/m3]	speed of sound, 298.15 K [m/s]	speed of sound, 303.15 K [m/s]	viscosity, 298.15 K [mPa·s]	viscosity, 303.15 K [mPa·s]
x1 = 0.0505	1008.57	1339.3	1317.9	1.217	1.12
x1 = 0.1	991.286	1333.2	1312.3	1.247	1.145
x1 = 0.1501	975.785	1328.6	1308.1	1.296	1.188
x1 = 0.2	961.05	1324.7	1304.6	1.344	1.229
x1 = 0.25	947.06	1321.5	1301.8	1.415	1.291
x1 = 0.2997	934.312	1319	1299.7	1.5	1.365
x1 = 0.3502	922.561	1317.4	1298.4	1.605	1.455
x1 = 0.4001	911.608	1316	1297.2	1.713	1.547
x1 = 0.4498	901.275	1315.2	1296.6	1.834	1.653
x1 = 0.4998	891.612	1314.9	1296.6	2	1.794
x1 = 0.55	882.643	1314.8	–	2.169	1.937
x1 = 0.6004	874.251	1315.2	–	2.365	2.104
x1 = 0.6501	866.177	1316	–	2.593	2.296
x1 = 0.7002	858.585	1316.9	–	2.861	2.521
x1 = 0.7493	851.217	1318.2	–	3.154	2.766
x1 = 0.7999	844.345	1318.9	–	3.524	3.073
x1 = 0.85	837.74	1321.5	–	3.943	3.419
x1 = 0.8998	831.478	1323.2	–	4.464	3.847
x1 = 0.9498	825.31	1325.4	–	5.075	4.346
x1 = 1	819.73	1328.3	–	5.869	4.989
